Assay results: PMC9278983, “Biochemical and Structural Characterization of Thermostable GH159 Glycoside Hydrolases Exhibiting α-L-Arabinofuranosidase Activity” (Frontiers in Molecular Biosciences, 2022)

Experiments:
Type in all cases: biochemical
Cs_Gaf159A [1] = biological target: T1, Cs_Gaf159A (Caldicellulosiruptor saccharolyticus, UniProt A4XGP0); experiment: product inhibition, pNPA hydrolysis; conditions: read-out: % inhibition at 500 mM
T1 construct: gene Csac_0437; full-length (no signal peptide), C-terminal His6 tag, pET24c(+), E. coli BL21 Star, IMAC

Ck_Gaf159A = biological target: T2, Ck_Gaf159A (Caldicellulosiruptor kronotskyensis, UniProt E4SDK8); experiment: product inhibition, pNPA hydrolysis; conditions: read-out: % inhibition at 500 mM
T2 construct: gene Calkro_0290; full-length (no signal peptide), C-terminal His6 tag, pET24c(+), E. coli BL21 Star, IMAC

Ch_Gaf159A [2] = biological target: T3, Ch_Gaf159A (Caldicellulosiruptor hydrothermalis, UniProt E4QB49); experiment: product inhibition, pNPA hydrolysis; conditions: read-out: % inhibition at 500 mM
T3 construct: gene Calhy_0274; full-length (no signal peptide), C-terminal His6 tag, pET24c(+), E. coli BL21 Star, IMAC; monomer

Cs_Gaf159A [3] = biological target: T1, Cs_Gaf159A; experiment: pNP release, […] nm, Michaelis-Menten; conditions: 90 °C, pH 6.5 MOPS, 10 mM CaCl2, 10 min; saturation not reached
Ch_Gaf159A [4] = biological target: T3, Ch_Gaf159A; experiment: pNP release, […] nm, Michaelis-Menten; conditions: 82 °C, pH 6.5 MOPS, 10 mM CaCl2, 10 min; saturation not reached

T1 sequence (A4XGP0 entry or part of it): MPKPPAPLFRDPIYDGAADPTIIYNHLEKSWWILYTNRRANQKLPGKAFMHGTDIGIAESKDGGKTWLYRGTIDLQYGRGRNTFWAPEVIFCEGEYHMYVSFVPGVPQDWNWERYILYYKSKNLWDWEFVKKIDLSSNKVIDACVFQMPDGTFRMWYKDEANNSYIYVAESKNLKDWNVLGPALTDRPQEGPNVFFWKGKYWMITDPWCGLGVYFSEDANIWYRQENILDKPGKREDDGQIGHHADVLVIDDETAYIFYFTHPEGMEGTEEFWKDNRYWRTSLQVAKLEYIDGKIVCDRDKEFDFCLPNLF
T3 sequence (E4QB49 entry or part of it): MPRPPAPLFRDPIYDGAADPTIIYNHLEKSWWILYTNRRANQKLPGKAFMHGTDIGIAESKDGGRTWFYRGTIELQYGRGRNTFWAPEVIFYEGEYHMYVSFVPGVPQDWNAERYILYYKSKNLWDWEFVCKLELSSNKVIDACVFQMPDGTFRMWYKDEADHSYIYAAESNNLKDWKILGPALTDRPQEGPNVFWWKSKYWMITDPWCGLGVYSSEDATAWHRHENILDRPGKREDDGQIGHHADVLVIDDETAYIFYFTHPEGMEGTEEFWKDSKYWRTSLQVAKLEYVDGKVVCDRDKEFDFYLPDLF
T2 sequence (E4SDK8 entry or part of it): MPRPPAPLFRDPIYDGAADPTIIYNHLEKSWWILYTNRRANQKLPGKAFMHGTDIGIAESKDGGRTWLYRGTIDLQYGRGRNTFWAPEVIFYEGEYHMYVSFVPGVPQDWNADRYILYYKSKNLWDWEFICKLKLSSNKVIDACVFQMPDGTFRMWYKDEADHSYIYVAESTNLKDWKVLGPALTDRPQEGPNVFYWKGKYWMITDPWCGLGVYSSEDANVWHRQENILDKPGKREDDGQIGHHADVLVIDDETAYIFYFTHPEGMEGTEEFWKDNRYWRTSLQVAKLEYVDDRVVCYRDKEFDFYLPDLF

SMILES: OC1OC[C@H](O)[C@H](O)[C@H]1O (some centres unmarked) [arabinose]
- inhibition at 500000 µM (Cs_Gaf159A [1]): < 50%
- inhibition at 500000 µM (Ck_Gaf159A): < 50%
- inhibition at 500000 µM (Ch_Gaf159A [2]): < 50%

SMILES: O=[N+]([O-])c1ccc(O[C@@H]2O[C@@H](CO)[C@H](O)[C@H]2O)cc1 [pNPA, pNP-α-L-arabinofuranoside]
- Km (Cs_Gaf159A [3]): > 10 mM
- Km (Ch_Gaf159A [4]): > 10 mM
